Assay results taken from patent US6706740B2, “Fungicidal heterocyclic aromatic amides and their compositions, methods of use and preparation” (Dow AgroSciences LLC, priority 1999, dated 2004).

Test system: not given
Test: not given
Details: not given

Row | SMILES | melting point [°C]
1 | COCCC(=O)Oc1c(OC)ccnc1C(=O)Nc1cccc(C(=O)Nc2ccc(C(F)(F)F)cc2)c1 [Compound 714] | 187 to 189
2 | COc1ccnc(C(=O)N[C@H]2COC(=O)[C@H](Cc3ccccc3)[C@@H](OC(=O)C(C)(C)C)[C@H](C)OC2=O)c1O [Compound 388] | 212 to 214
3 | O=C(Nc1cccc(Oc2ccccc2)c1)c1cccnc1O [Compound 521] | 200 to 201

Test system: Rhizoctonia solani (RHIZSO)
Test: microbe, parasite or virus in culture
Type: cell-based
Details: Rhizoctonia solani, read-out: RHIZSO in vitro Growth Inhibition

Row | SMILES | inhibition at 25 ppm [%]
4 | COCCC(=O)Oc1c(OC)ccnc1C(=O)Nc1cccc(C(=O)Nc2ccc(C(F)(F)F)cc2)c1 [Compound 714] | < 80
5 | COc1ccnc(C(=O)N[C@H]2COC(=O)[C@H](Cc3ccccc3)[C@@H](OC(=O)C(C)(C)C)[C@H](C)OC2=O)c1O [Compound 388] | < 80
6 | O=C(Nc1cccc(Oc2ccccc2)c1)c1cccnc1O [Compound 521] | < 80

Test system: Leptosphaeria nodorum—LEPTNO
Test: Glume Blotch of Wheat, in vivo whole plant, 24 Hour Protectant
Details: 100 ppm spray, wheat, 24 hour protectant; control of fungal infection vs untreated plants

Row | SMILES | LEPTNO in vivo 1 Day Protectant
7 | COc1ccnc(C(=O)N[C@H]2COC(=O)[C@H](Cc3ccccc3)[C@@H](OC(=O)C(C)(C)C)[C@H](C)OC2=O)c1O [Compound 388] | + +

Same assay, conditions: Leptosphaeria; 100 ppm spray, wheat, 24 hour protectant, % control of fungal infection vs untreated plants; read-out: LEPTNO in vivo 1 Day Protectant

Row | SMILES | pest or weed control at 100 ppm [%]
8 | COCCC(=O)Oc1c(OC)ccnc1C(=O)Nc1cccc(C(=O)Nc2ccc(C(F)(F)F)cc2)c1 [Compound 714] | 25 to 74

Same assay, conditions: Leptosphaeria; wheat plants sprayed at 100 ppm, inoculated after 24 hours; control of fungal infection vs untreated plants; read-out: LEPTNO in vivo 1 Day Protectant

Row | SMILES | pest or weed control at 100 ppm [%]
9 | O=C(Nc1cccc(Oc2ccccc2)c1)c1cccnc1O [Compound 521] | 25 to 74

Test system: Erysiphe graminis—ERYSGT
Test: Powdery Mildew of Wheat, in vivo whole plant, 24 Hour Protectant
Details: Erysiphe; 100 ppm spray, wheat, 24 hour protectant, % control of fungal infection vs untreated plants; read-out: ERYSGT in vivo 1 Day Protectant

Row | SMILES | pest or weed control at 100 ppm [%]
10 | COCCC(=O)Oc1c(OC)ccnc1C(=O)Nc1cccc(C(=O)Nc2ccc(C(F)(F)F)cc2)c1 [Compound 714] | < 25

Same assay, conditions: Erysiphe; 100 ppm spray, wheat, 24 hour protectant; control of fungal infection vs untreated plants; read-out: ERYSGT in vivo 1 Day Protectant

Row | SMILES | pest or weed control at 100 ppm [%]
11 | COc1ccnc(C(=O)N[C@H]2COC(=O)[C@H](Cc3ccccc3)[C@@H](OC(=O)C(C)(C)C)[C@H](C)OC2=O)c1O [Compound 388] | < 25

Same assay, conditions: Erysiphe; wheat plants sprayed at 100 ppm, inoculated after 24 hours; control of fungal infection vs untreated plants; read-out: ERYSGT in vivo 1 Day Protectant

Row | SMILES | pest or weed control at 100 ppm [%]
12 | O=C(Nc1cccc(Oc2ccccc2)c1)c1cccnc1O [Compound 521] | < 25

Test system: Puccinia recondita—PUCCRT
Test: Brown Rust of Wheat, in vivo whole plant, 24 Hour Protectant
Details: Puccinia; 100 ppm spray, wheat, 24 hour protectant, % control of fungal infection vs untreated plants; read-out: PUCCRT in vivo 1 Day Protectant

Row | SMILES | pest or weed control at 100 ppm [%]
13 | COCCC(=O)Oc1c(OC)ccnc1C(=O)Nc1cccc(C(=O)Nc2ccc(C(F)(F)F)cc2)c1 [Compound 714] | < 25

Same assay, conditions: Puccinia; 100 ppm spray, wheat, 24 hour protectant; control of fungal infection vs untreated plants; read-out: PUCCRT in vivo 1 Day Protectant

Row | SMILES | pest or weed control at 100 ppm [%]
14 | COc1ccnc(C(=O)N[C@H]2COC(=O)[C@H](Cc3ccccc3)[C@@H](OC(=O)C(C)(C)C)[C@H](C)OC2=O)c1O [Compound 388] | 25 to 74

Same assay, conditions: Puccinia; wheat plants sprayed at 100 ppm, inoculated after 24 hours; control of fungal infection vs untreated plants; read-out: PUCCRT in vivo 1 Day Protectant

Row | SMILES | pest or weed control at 100 ppm [%]
15 | O=C(Nc1cccc(Oc2ccccc2)c1)c1cccnc1O [Compound 521] | < 25

Test system: Phytophthora infestans (PHYTIN)
Test: microbe, parasite or virus in culture
Type: cell-based
Details: Phytophthora infestans, read-out: PHYTIN in vitro Growth Inhibition

Row | SMILES | inhibition at 25 ppm [%]
16 | COCCC(=O)Oc1c(OC)ccnc1C(=O)Nc1cccc(C(=O)Nc2ccc(C(F)(F)F)cc2)c1 [Compound 714] | < 80
17 | COc1ccnc(C(=O)N[C@H]2COC(=O)[C@H](Cc3ccccc3)[C@@H](OC(=O)C(C)(C)C)[C@H](C)OC2=O)c1O [Compound 388] | < 80
18 | O=C(Nc1cccc(Oc2ccccc2)c1)c1cccnc1O [Compound 521] | < 80

Test system: Ustilago maydis (USTIMA)
Test: microbe, parasite or virus in culture
Type: cell-based
Details: Mycosarcoma maydis, read-out: USTIMA in vitro Growth Inhibition

Row | SMILES | inhibition at 25 ppm [%]
19 | COCCC(=O)Oc1c(OC)ccnc1C(=O)Nc1cccc(C(=O)Nc2ccc(C(F)(F)F)cc2)c1 [Compound 714] | < 80
20 | COc1ccnc(C(=O)N[C@H]2COC(=O)[C@H](Cc3ccccc3)[C@@H](OC(=O)C(C)(C)C)[C@H](C)OC2=O)c1O [Compound 388] | < 80
21 | O=C(Nc1cccc(Oc2ccccc2)c1)c1cccnc1O [Compound 521] | < 80

Test system: Septoria tritici—SEPTTR
Test: Leaf Blotch of Wheat, in vivo whole plant, 24 Hour Protectant
Details: Zymoseptoria tritici, 24 h, 100 ppm spray, wheat, 24 hour protectant, % control of fungal infection vs untreated plants; read-out: SEPTTR in vivo 1 Day Protectant

Row | SMILES | pest or weed control at 100 ppm [%]
22 | COCCC(=O)Oc1c(OC)ccnc1C(=O)Nc1cccc(C(=O)Nc2ccc(C(F)(F)F)cc2)c1 [Compound 714] | 25 to 74

Same assay, conditions: Zymoseptoria tritici, 24 h, 100 ppm spray, wheat, 24 hour protectant; control of fungal infection vs untreated plants; read-out: SEPTTR in vivo 1 Day Protectant

Row | SMILES | pest or weed control at 100 ppm [%]
23 | COc1ccnc(C(=O)N[C@H]2COC(=O)[C@H](Cc3ccccc3)[C@@H](OC(=O)C(C)(C)C)[C@H](C)OC2=O)c1O [Compound 388] | 25 to 74

Same assay, conditions: Zymoseptoria tritici, 24 h, wheat plants sprayed at 100 ppm, inoculated after 24 hours; control of fungal infection vs untreated plants; read-out: SEPTTR in vivo 1 Day Protectant

Row | SMILES | pest or weed control at 100 ppm [%]
24 | O=C(Nc1cccc(Oc2ccccc2)c1)c1cccnc1O [Compound 521] | < 25

Test system: Stagonospora nodorum (Leptosphaeria nodorum—LEPTNO)
Test: In vitro fungal growth inhibition, Stagonospora nodorum (LEPTNO)
Type: cell-based
Details: Leptosphaeria; 25 ppm in growth medium; read-out: LEPTNO in vitro Growth Inhibition

Row | SMILES | inhibition at 25 ppm [%]
25 | COCCC(=O)Oc1c(OC)ccnc1C(=O)Nc1cccc(C(=O)Nc2ccc(C(F)(F)F)cc2)c1 [Compound 714] | < 80
26 | COc1ccnc(C(=O)N[C@H]2COC(=O)[C@H](Cc3ccccc3)[C@@H](OC(=O)C(C)(C)C)[C@H](C)OC2=O)c1O [Compound 388] | > 80

Same assay, conditions: Leptosphaeria; 25 ppm in the growth medium; read-out: LEPTNO in vitro Growth Inhibition

Row | SMILES | inhibition at 25 ppm [%]
27 | O=C(Nc1cccc(Oc2ccccc2)c1)c1cccnc1O [Compound 521] | < 80

Test system: Phytophthora infestans—PHYTIN
Test: whole plant or invertebrate
Type: in vivo
Details: Phytophthora, in Solanum lycopersicum, 24 h, read-out: PHYTIN in vivo 1 Day Protectant

Row | SMILES | pest or weed control at 100 ppm [%]
28 | COCCC(=O)Oc1c(OC)ccnc1C(=O)Nc1cccc(C(=O)Nc2ccc(C(F)(F)F)cc2)c1 [Compound 714] | < 25
29 | COc1ccnc(C(=O)N[C@H]2COC(=O)[C@H](Cc3ccccc3)[C@@H](OC(=O)C(C)(C)C)[C@H](C)OC2=O)c1O [Compound 388] | < 25
30 | O=C(Nc1cccc(Oc2ccccc2)c1)c1cccnc1O [Compound 521] | 25 to 74

Test system: Magnaporthe grisea (Pyricularia oryzae—PYRIOR)
Test: microbe, parasite or virus in culture
Type: cell-based
Details: Pyricularia oryzae, read-out: PYRIOR in vitro Growth Inhibition

Row | SMILES | inhibition at 25 ppm [%]
31 | COCCC(=O)Oc1c(OC)ccnc1C(=O)Nc1cccc(C(=O)Nc2ccc(C(F)(F)F)cc2)c1 [Compound 714] | < 80
32 | COc1ccnc(C(=O)N[C@H]2COC(=O)[C@H](Cc3ccccc3)[C@@H](OC(=O)C(C)(C)C)[C@H](C)OC2=O)c1O [Compound 388] | < 80
33 | O=C(Nc1cccc(Oc2ccccc2)c1)c1cccnc1O [Compound 521] | < 80

Test system: Mycosphaerella graminicola (Septoria tritici—SEPTTR)
Test: In vitro fungal growth inhibition, Mycosphaerella graminicola (SEPTTR)
Type: cell-based
Details: Zymoseptoria tritici; 25 ppm in growth medium; read-out: SEPTTR in vitro Growth Inhibition

Row | SMILES | inhibition at 25 ppm [%]
34 | COCCC(=O)Oc1c(OC)ccnc1C(=O)Nc1cccc(C(=O)Nc2ccc(C(F)(F)F)cc2)c1 [Compound 714] | < 80
35 | COc1ccnc(C(=O)N[C@H]2COC(=O)[C@H](Cc3ccccc3)[C@@H](OC(=O)C(C)(C)C)[C@H](C)OC2=O)c1O [Compound 388] | > 80

Same assay, conditions: Zymoseptoria tritici; 25 ppm in the growth medium; read-out: SEPTTR in vitro Growth Inhibition

Row | SMILES | inhibition at 25 ppm [%]
36 | O=C(Nc1cccc(Oc2ccccc2)c1)c1cccnc1O [Compound 521] | < 80
